The test system of data set [1] is Rotavirus: Simian Rotavirus SA-11. Briefly: microbe, parasite or virus in culture. Format: cell-based. Conditions: Simian rotavirus SA-11, MA104 cell culture.
In data set [2] the test system is Influenza A: PR8 strain. The experiment in a line: microbe, parasite or virus in culture. The data set is classed as cell-based, Influenza A virus.
Data set [3] concerns Paramyxovirus: Sendai virus. Briefly: microbe, parasite or virus in culture. Conditions: Sendai virus, 37RC cell culture (Table 1). The data set is classed as cell-based.
For data set [4], the system named is Coronavirus: canine coronavirus strain S-378. The experiment in a line: microbe, parasite or virus in culture. Format: cell-based. Conditions: canine coronavirus strain S-378, A72 cell culture.
Data set [5] concerns Rhabdovirus: Vesicular stomatitis virus. The experiment in a line: microbe, parasite or virus in culture. The data set is classed as cell-based.
In data set [6] the test system is Herpes Simplex type 1: strain F1. Briefly: microbe, parasite or virus in culture. Format: cell-based, Herpes Simplex virus type 1. The note with it: Herpes Simplex type 1 strain F1, HEp-2 cell culture.
Data set [7] deals with Hepatitis B Virus (HBV). Briefly: HBV replication in 2.2.15 cell culture, 9-day assay. Format: cell-based. Conditions: for EC50 / EC90: Hepatitis B virus, 2.2.15 cells. As for the experimental part: (§1) Anti-Hepatitis B Virus (HBV) analyses and an assessment of cytotoxicity were performed in a 9-day assay in the chronically-producing HBV human hepatoblastoma cell line, 2.2.15, as previously described (Korba, B. E. & Gerin, J. L. Use of a standardized cell culture assay to assess activities of nucleosides analogues against hepatitis B virus replication. Antivir. Res. 19, 55-70 (1992)).
(§2) Values presented (±standard deviations [S.D.]) were calculated by linear regression analysis using data combined from all treated cultures. S.D. were calculated using the standard error of regression generated from linear regression analyses (QuattroPro™). EC50, EC90=drug concentration at which a 2-fold, or a 10-fold depression of HBV DNA (relative to the average levels in untreated cultures), respectively, was observed, CC50=drug concentration at which a 2-fold depression of neutral red dye uptake (relative to the average levels in untreated cultures) was observed, The EC90 values were used for the calculation of the Selectivity Indexes [S.I.] since at least a 3-fold depression of HBV levels is typically required to achieve statistical significance in this assay system. HBV R.I.=intracellular HBV DNA replication intermediate.

The nature of data set [8]: Cytotoxicity in 2.2.15 cells (neutral red dye uptake). Format: cell-based. Conditions: human, 2-fold depression of neutral red dye uptake. How it is done:
as §1, §2

Data set [9] deals with hepatitis C virus (HCV) replicon. The experiment in a line: HCV replication in AVA5 replicon cell culture, 3-day assay. Format: cell-based. Conditions: AVA5 cells; for EC50: 2-fold depression of HCV RNA; for EC90: 10-fold depression of HCV RNA. As for the experimental part:
(§3) Anti-Hepatitis C Virus (HCV) analyses and an assessment of cytotoxicity were performed in a 3-day assay in the HCV replicon-containing human hepatoblastoma cell line, AVA5 (Okuse, C., Rinaudo, J. A., Farrar, K., Wells, F. & Korba, B. E. Enhancement of antiviral activity against hepatitis C virus in vitro by interferon combination therapy. Antivir. Res. 65, 23-34 (2005)) as previously described (Blight, K. J., Kolykhalov, A. A. & Rice, C. M. Efficient initiation of HCV RNA replication in cell culture. Science 290, 1972-1974 (2000)).
(§4) Values presented (±standard deviations [S.D.]) were calculated by linear regression analysis using data combined from all treated cultures. S.D. were calculated using the standard error of regression generated from the linear regression analyses (QuattroPro™). EC50, EC90=drug concentration at which a 2-fold, or a 10-fold depression of HCV RNA (relative to the average levels in untreated cultures), respectively, was observed. CC50=drug concentration at which a 2-fold depression of neutral red dye uptake was observed relative to the average levels in untreated cultures. Selectivity index=CC50/EC50.
On the technique in general: A replicon is a self-replicating genome or part of one, used to study replication in cells.

Data set [10] can be described thus: Cytotoxicity in AVA5 cells (neutral red dye uptake). Format: cell-based, human. The note with it: human, 2-fold depression of neutral red dye uptake. As for the experimental part:
as §3, §4

Data set [11] has as its system B. fragilis group. Briefly: CLSI agar dilution MIC, anaerobic clinical isolates. The data set is classed as cell-based. The note with it: Bacteroides fragilis, B. fragilis gp (40 isolates), 48 h, 35° C. How it is done:
(§5) Methods. Recent clinical anaerobic isolates (2000 to date) comprised 40 B. fragilis group, 26 Prevotella/Porphyromonas, 28 fusobacteria, 16 anaerobic Gram positive cocci, 14 anaerobic Gram-positive non-sporeforming rods and 18 clostridia. CLSI agar dilution MIC methodology with enriched Brucella blood agar and inocula of 1×10^5 cfu/spot was used. Plates were incubated in an anaerobic glove box at 35° C. for 48 h. Results.
In general terms: In agar dilution the substance is mixed into plates at graded concentrations.

The test system of data set [12] is Prevotella/Porphyromonas. Described as above. The data set is classed as cell-based. The note with it: Prev/Porphy (26 isolates), 48 h. As for the experimental part:
as §5

The subject of data set [13] is fusobacteria. The description is as above. The data set is classed as cell-based. The note with it: Fusobacteria (28 isolates), 48 h. How it is done: as §5
In data set [14] the test system is anaerobic Gram positive cocci. The description is as above. The data set is classed as cell-based. The note with it: Gram + cocci (16 isolates), 48 h.
Data set [15] concerns anaerobic Gram-positive non-sporeforming rods. The description is as above. The data set is classed as cell-based. The note with it: Gram + rods (14 isolates), 48 h.
For data set [16], the system named is clostridia. Briefly: organism not typed. The data set is classed as cell-based. The note with it: Clostridia (18 isolates), agar dilution, 48 h.
Data set [17] relates to anaerobic bacteria (all 142 isolates). The experiment in a line: CLSI agar dilution MIC, all anaerobic clinical isolates. Format: cell-based.
Data set [18] deals with AVA5 cells. Briefly: Cytotoxicity in AVA5 cells (neutral red dye uptake). Format: cell-based, human. Conditions: neutral red dye uptake, values for interferon. How it is done: as §3, §4
[19] abbreviates: All (142 isolates), agar dilution, 48 h.

The values that follow come from patent US7285567B2, “Halogenated benzamide derivatives” (Romark Laboratories, L.C., priority 2005, dated 2007).

Read-outs that look alike come from different tables or passages of the source. Marks after values point to notes of the source that are not given here. Some results are limits rather than exact numbers.

`Cc1cccc(C(=O)Nc2ncc(Br)s2)c1O` [RM-4819, 2-(hydroxy)-3-methyl-N-(5-bromo-2-thiazolyl)benzamide]: the EC50 in [1] (Rotavirus A) stood at 0.3 µM; in [2] (Influenza A virus, PR8, MDCK), 9.6 µM; in data set [3] (Respirovirus muris), 1.3 µM; in data set [4] (Alphacoronavirus 1, A-72) it was 4.9 µM; in [5] (MA104) it was 1.6 µM; in [6] (Human alphaherpesvirus 1) it was 0.6 µM. Moreover, the EC50 came out at 3.5 ± 0.5 µM in data set [7] (2-fold depression of HBV DNA, read-out: Extracellular Virion DNA EC50); 7.6 ± 0.9 µM in [7] (intracellular HBV DNA replication intermediate, 2-fold depression, read-out: Intracellular HBV R.I. EC50); 8.9 ± 0.7 µM in [9] (Hepatitis C virus, read-out: EC50). In addition, the “SI (selectivity index) = CC50/EC50” value in data set [1] (CC50 by MTT) is given as greater than 500; in data set [2] (Influenza A PR8 strain, MDCK cell culture, CC50 by MTT), greater than 17; in data set [3] (CC50 by MTT), greater than 125; in data set [4] (CC50 by MTT), greater than 33; in [5] (MA104 cell culture, CC50 by MTT) it was greater than 100; in [6] (CC50 by MTT), greater than 250. Moreover, the EC90 in data set [7] (10-fold depression of HBV DNA, read-out: Extracellular Virion DNA EC90) turned out to be 9 ± 0.8 µM; in data set [7] (intracellular HBV DNA replication intermediate, 10-fold depression, read-out: Intracellular HBV R.I. EC90), 22 ± 2.6 µM; in data set [9] (Hepatitis C virus, read-out: EC90), 79 ± 8.2 µM. In data set [7] (calculated with EC90 values (CC50/EC90), HBV R.I.), the “Selectivity Index R.I.” value is recorded as greater than 46. Moreover, the “Selectivity Index Virion” value in data set [7] (calculated with EC90 values (CC50/EC90), virion DNA) is listed as greater than 111. The compound further displayed a CC50 at 9 day in data set [8] greater than 1000 µM. Moreover, the “Selectivity Index” value in data set [9] (CC50/EC50) amounted to 18. The CC50 at 3 day in data set [10] was 164 ± 18 µM. Besides, the MIC50 in data set [11], in [12], in [13], in [14], in data set [15] and in data set [16] (read-out: MIC50) was greater than 32 µg/mL in each case. The MIC50 in data set [17] (setting [19]) is greater than 32 µg/mL. Moreover, the MIC90 in [11], in data set [12], in [13], in data set [14], in data set [15] and in data set [16] (read-out: MIC90) was greater than 32 µg/mL each time. Besides, the MIC90 in data set [17] (setting [19]) is greater than 32 µg/mL. Also, the “Activity against anaerobic bacteria groups (summary in words)” value in data set [17] (summary of MIC results) is reported as “without significant activity”.

Regarding ∝ - Interferon, in data set [9] (values for interferon), the EC50 stood at 2.2 ± 0.2 IU/ml and the EC90 stood at 8.5 ± 0.6 IU/ml. The CC50 in data set [18] is reported as >10,000*^§ IU/ml.

By CC50 is commonly meant the concentration at which the toxic effect on the cells reaches its halfway point. The MIC50 is an inhibitory concentration at the 50% level, which refers to growth in some studies and to a panel of isolates in others. As usually defined, the MIC90 is the lowest concentration that inhibits either 90% of growth or 90% of the strains tested, depending on the study.
